Experimental findings from US5476848A, “14B(R) isomers of novel tetracyclic compounds having anti-allergic and anti-asthmatic activities, and their use” (Sankyo Company, Limited, priority 1989, dated 1995) are described below.

Structures are written as SMILES. Where a name gives a salt, the structure may show the parent alone.

In experiment [1] the test system is eosinophil chemotaxis. Kind of experiment: Inhibitory effect of eosinophil chemotaxis to zymosan-activated serum (Test Example 4). Format: cell-based, guinea pig. Particulars: for Inhibitory effect (%) on chemotaxis of eosinophil / inhibition at 0.1 µg/mL: 0.1 μg/ml, ZAS; for inhibition at 0.1 µg/mL: Cavia porcellus, Eosinophil; for potency of the R-isomer relative to the racemate: eosinophil table, R-isomer vs racemate. An excerpt:
Eosinophils were harvested from the peritoneal cavity of polymyxin B-treated guinea pigs (body weight, approx. 400 g) according to the method described by Pincus (Pincus, S. H. et al.: Blood, 52, 127-134 (1978)). The eosinophils were separated and purified by Ficoll-paque (Pharmacia) density gradient centrifugation. Then, the eosinophil chemotaxis to zymosan-activated serum (ZAS) was investigated by a modification of the Boyden micropore filter technique (Gosset, P. et al.: Clin. Exp. Immunol., 65, 654-663 (1986)). Briefly, the assay was carried out in a 48-well microchemotaxis assembly (Neuroprobe; Cabin John, Md., U.S.A.). Cell suspensions were adjusted to 2.5×10^5 /50 μl, and placed in the upper chamber separated from the chemoattractant (ZAS) solution in the lower chamber by a 3 μm pore size polycarbonate membrane filter (Nucleopore Co., Pleasanton, U.S.A.). The cells were incubated for 10 min at 37° C. with the test compounds, prior to their addition to the chemotaxis chamber. Migration was carried out at 37° C. in humidified air with 5% CO2 for 2 h. After the incubation, the migrated eosinophils in the lower Chamber were counted by a hemocytometer.
The percentage inhibition obtained with the test compound was calculated by comparison to the positive control (migration of non-treated cells in response to the ZAS), according to the formula:
Percent inhibition=[1-(A/B)]×100
A: (migration with a test compound)-(spontaneous migration)
B: (positive control migration)-(spontaneous migration)

The subject of experiment [2] is eosinophil accumulation. Briefly: Inhibitory effect on antigen induced eosinophil accumulation (Test Example 4).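 For all read-outs here: oral dose 0.1 mg/kg.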 The class given is in vivo, guinea pig (male Hartley). Conditions: po, 1 hr before antigen challenge, BALF 24 hr after; for Inhibitory effect (%) on accumulation of eosinophil: 0.1 mg/kg; for inhibition at 0.1 mg/kg: Cavia porcellus, Eosinophil. How it is done:
Male Hartley guinea pigs weighing approximately 400 g were sensitized with ovalbumin by the method described by Engineer et al. (Engineer, D. M. et al., J. Pharmacol., 62, 61-66 (1978)), and the number of eosinophils infiltrating into the bronchoalveolar space due to antigen challenge was examined.
Briefly, the animals were exposed to the antigen (ovalbumin) for 6 min. At 24 hr. after antigen challenge, the guinea pigs were anesthetized with pentobarbital (30 mg/kg, i.p.). The trachea was cannulated by a disposable intravenous catheter, and the airway lumen (especially in the right posterior lobe) was washed with 0.9% saline (10 ml/kg) kept at 37° C. The bronchoalveolar lavage fluid (BALF) from each animal was centrifuged (150 g for 10 min at 4° C.). After removing the supernatant, the cell pellet was resuspended in HBSS (Hank's balanced solution) and a total cell count was performed using a standard hemocytometer. Differential cell counts were done on smears fixed in methanol and stained with Wright-Giemsa solution, and by light microscopy under oil immersion (×1000). The proportion of eosinophil population was expressed as a percentage of total cells, and this ratio together with the total cell count was used to calculate the total number of eosinophils. The percent inhibition of the test compounds which was administered 1 hr before antigen challenge, was calculated as follows:
Percent inhibition=[1-(C-A)/(B-A)]×100
A: negative control: mean value of cell counts in BALF from the animals with inhaled saline
B: positive control: mean value of cell counts in BALF from the animals 24 h after antigen challenge
C: cell counts of BALF for the animals pretreated with a test compound 24 h after antigen challenge

The test system of experiment [3] is Antigen-induced Bronchoconstriction. Kind of experiment: Effect on antigen-induced bronchoconstriction in sensitized guinea pigs (Test Example 2). Format: in vivo, guinea pig (male Hartley). Particulars: Cavia porcellus, po, 60 min before challenge, read-out: Inhibitory rate. How it is done:
The test animals used were male guinea pigs of the Hartley strain (weighing about 400 to 500 g). These animals were sensitized according to Morris' method [H. R. Morris; Br. J. Pharmac., 67, 179-184 (1979)]. The guinea pigs were subcutaneously and intraperitoneally injected twice, each time with 25 mg of egg albumin (grade 5, Sigma) at weekly intervals. 7 days after the second of these weekly injections, the animals were fasted for one day and then exposed to an aerosol of egg albumin (10 mg/ml). All of the animals so exposed responded with convulsions, indicating respiratory distress due to airway constriction, within 6 minutes.
60 minutes before the egg albumin challenge, one of the test compounds shown in the following Table 5 was administered orally to each of the animals.

Experiment [4] concerns Passive Cutaneous Anaphylaxis (PCA). Kind of experiment: Inhibitory effect on passive cutaneous anaphylaxis (PCA) in rats (Test Example 1). The class given is in vivo, rat (male SD). Conditions: Rattus norvegicus, po, read-out: Inhibitory rate. On the procedure:
Male SD rats (5 weeks old) were used as the test animals in groups, each containing 4 animals. The rats were sensitized by intradermal injection of 0.05 ml of the diluted antiserum solution in the dorsal position. 48 hours after this injection, a suspension of the test compound in an aqueous 0.5% w/v tragacanth solution was orally administered to the rats, fasted for one day, and 60 minutes later they were injected in the caudal vein with 5 ml/kg body weight of physiological saline containing 0.4% w/v egg albumin and 1.0% w/v Evans Blue.
The inhibitory rate was calculated by the following equation.
Inhibitory rate (%)=(1-B/A)×100
A: amount of exuded dye in the control group
B: amount of exuded dye in the test group.

On to `CCOC(=O)CCCN1CCN2c3ccccc3Cc3ccccc3C2C1` (racemic) [19 HCl racemate], for which the “Inhibitory effect (%) on chemotaxis of eosinophil” value in experiment [1] amounted to 5%. Also, in experiment [2], the “Inhibitory effect (%) on accumulation of eosinophil” value was found to be 48%.

The compound `CCOC(=O)CCCN1CCN2c3ccccc3Cc3ccccc3C2C1` (racemic) [19 fumarate racemate] returned an inhibition at 0.1 µg/mL in experiment [1] of 3%. Besides, the “Inhibitory effect (%) on accumulation of eosinophil” value in experiment [2] was found to be 24%.

As for `CCOC(=O)CCCCCN1CCN2c3ccccc3Cc3ccccc3C2C1` (racemic) [21 HCl racemate], the inhibition at 0.1 µg/mL in experiment [1] was 23%. The same compound showed an inhibition at 0.1 mg/kg in experiment [2] of 37%.

Consider `O=C(O)CCCN1CCN2c3ccccc3Cc3ccccc3C2C1` (racemic) [22 HCl racemate], for which the “Inhibitory effect (%) on chemotaxis of eosinophil” value in experiment [1] is given as 6%. Besides, in experiment [2], the “Inhibitory effect (%) on accumulation of eosinophil” value was 31%.

In experiment [1], `O=C(O)CCCN1CCN2c3ccccc3Cc3ccccc3C2C1` (racemic) [22 free racemate] had an inhibition at 0.1 µg/mL of 9%. Besides, the “Inhibitory effect (%) on accumulation of eosinophil” value in experiment [2] amounted to 3%.

Take `O=C(O)CCCCCN1CCN2c3ccccc3Cc3ccccc3C2C1` (racemic) [24 HCl racemate]: in experiment [1], the inhibition at 0.1 µg/mL stood at 25%. In addition, the inhibition at 0.1 mg/kg in experiment [2] amounted to 43%.

As for `CCOC(=O)CCCN1CCN2c3ccccc3Cc3ccccc3C2C1` (racemic) [Example 19, Ethyl 4-(1,2,3,4,10,14b-hexahydrodibenzo[c,f]pyrazino[1,2-a]azepin-2-yl)butanoate], in experiment [3], the inhibition at 0.025 mg/kg is 40% and the inhibition at 0.4 mg/kg came to 100%. For the same compound, in experiment [4], the inhibition at 0.05 mg/kg was found to be 55% and the inhibition at 0.2 mg/kg turned out to be 61%.

In the case of `O=C(O)CCCCCN1CCN2c3ccccc3Cc3ccccc3C2C1` (racemic) [Example 24, 6-(1,2,3,4,10,14b-Hexahydrodibenzo[c,f]pyrazino[1,2-a]azepin-2-yl)hexanoic acid], in experiment [3], the inhibition at 0.1 mg/kg was found to be 80% and the inhibition at 0.4 mg/kg came to 100%. For the same compound, in experiment [4], the inhibition at 0.05 mg/kg came to 46% and the inhibition at 3.1 mg/kg stood at 74%.

Consider `CCOC(=O)CCCN1CCN2c3ccccc3Cc3ccccc3[C@@H]2C1` [19 HCl R-isomer], for which, in experiment [1], the “Inhibitory effect (%) on chemotaxis of eosinophil” value is 43%. For the same compound, in experiment [2], the “Inhibitory effect (%) on accumulation of eosinophil” value was 58%.

Regarding `CCOC(=O)CCCN1CCN2c3ccccc3Cc3ccccc3[C@H]2C1` [19 HCl S-isomer], the “Inhibitory effect (%) on chemotaxis of eosinophil” value in experiment [1] stood at 1%. In experiment [2], the “Inhibitory effect (%) on accumulation of eosinophil” value is given as 41%.

Consider `CCOC(=O)CCCN1CCN2c3ccccc3Cc3ccccc3[C@@H]2C1` [19 fumarate R-isomer], for which, in experiment [1], the inhibition at 0.1 µg/mL stood at 55%. The inhibition at 0.1 mg/kg in experiment [2] came out at 62%.

Regarding `CCOC(=O)CCCN1CCN2c3ccccc3Cc3ccccc3[C@H]2C1` [19 fumarate S-isomer], the “Inhibitory effect (%) on chemotaxis of eosinophil” value in experiment [1] came to 0%. In experiment [2], this compound came in with an inhibition at 0.1 mg/kg of 32%.

As for `CCOC(=O)CCCCCN1CCN2c3ccccc3Cc3ccccc3[C@@H]2C1` [21 HCl R-isomer], in experiment [1], the inhibition at 0.1 µg/mL was 50% and the “potency of the R-isomer relative to the racemate” value is reported as “about double the potency”. Also, the inhibition at 0.1 mg/kg in experiment [2] amounted to 80%.

`CCOC(=O)CCCCCN1CCN2c3ccccc3Cc3ccccc3[C@H]2C1` [21 HCl S-isomer] came in with an inhibition at 0.1 µg/mL in experiment [1] of 9%. Besides, in experiment [2], the inhibition at 0.1 mg/kg amounted to 13%.

`O=C(O)CCCN1CCN2c3ccccc3Cc3ccccc3[C@H]2C1` [22 HCl S-isomer]: the inhibition at 0.1 µg/mL in experiment [1] stood at 5%. In addition, the inhibition at 0.1 mg/kg in experiment [2] is 47%.

For `O=C(O)CCCCCN1CCN2c3ccccc3Cc3ccccc3[C@@H]2C1` [24 HCl R-isomer], in experiment [1], the inhibition at 0.1 µg/mL amounted to 47% and the “potency of the R-isomer relative to the racemate” value was “about double the potency”. Also, the inhibition at 0.1 mg/kg in experiment [2] was 62%.

On to `O=C(O)CCCCCN1CCN2c3ccccc3Cc3ccccc3[C@H]2C1` [24 HCl S-isomer], for which the inhibition at 0.1 µg/mL in experiment [1] was determined as 0%. Besides, the inhibition at 0.1 mg/kg in experiment [2] came to 2%.

`CCOC(=O)COCCN1CCN2c3ccccc3Cc3ccccc3C2C1` (stereo not drawn) [Example 1]: in experiment [3], the inhibition at 0.025 mg/kg is 20% and the inhibition at 0.1 mg/kg came to 50%. In addition, in experiment [4], the inhibition at 0.2 mg/kg came out at 56% and the inhibition at 3.1 mg/kg worked out at 65%.

Regarding `O=C(O)COCCN1CCN2c3ccccc3Cc3ccccc3C2C1` (stereo not drawn) [Example 2], in experiment [3], the inhibition at 0.025 mg/kg stood at 20% and the inhibition at 0.1 mg/kg was found to be 80%. Besides, in experiment [4], the inhibition at 0.05 mg/kg came out at 62% and the inhibition at 0.8 mg/kg was determined as 74%.

For the compound `CCOC(=O)COCCN1CCN2c3ccc(Cl)cc3Cc3ccccc3C2C1` (stereo not drawn) [Example 4], the inhibition at 3.1 mg/kg in experiment [4] was determined as 63%.

`COC(=O)COCCN1CCN2c3ccc(Br)cc3Cc3ccccc3C2C1` (stereo not drawn) [Example 5, Methyl 2-(8-bromo-1,2,3,4,10,14b-hexahydrodibenzo[c,f]pyrazino[1,2-a]azepin-2-yl)ethoxyacetate]: in experiment [4], the inhibition at 0.8 mg/kg was found to be 23% and the inhibition at 3.1 mg/kg is 67%.

Consider `O=C(O)COCCN1CCN2c3ccc(Cl)cc3Cc3ccccc3C2C1` (stereo not drawn) [Example 9], for which the inhibition at 3.1 mg/kg in experiment [4] amounted to 63%.

As to `O=C(O)COCCN1CCN2c3ccc(Br)cc3Cc3ccccc3C2C1` (stereo not drawn) [Example 10], the inhibition at 3.1 mg/kg in experiment [4] stood at 53%.

With `O=C(O)COCCN1CCN2c3ncccc3Cc3ccccc3C2C1` (stereo not drawn) [Example 11, 2-(1,2,3,4,10,14b-Hexahydrobenzo[c]pyrazino[1,2-a]pyrido[5,6-c]azepin-2-yl)ethoxyacetic acid], in experiment [4], the inhibition at 0.8 mg/kg was 49% and the inhibition at 3.1 mg/kg was 60%.

As for `OCCCCCCN1CCN2c3ccccc3Cc3ccccc3C2C1` (stereo not drawn) [Example 18, 6-(1,2,3,4,10,14b-Hexahydrodibenzo[c,f]pyrazino[1,2-a]azepin-2-yl)hexanol], the inhibition at 0.4 mg/kg in experiment [3] came out at 100%.

For `CN(C)C(=O)COCCN1CCN2c3ccccc3Cc3ccccc3C2C1` (stereo not drawn) [Example 27, α-[2-(1,2,3,4,10,14b-Hexahydrodibenzo[c,f]pyrazino[1,2-a]azepin-2-yl)ethoxy]-N,N-dimethylacetamide], in experiment [4], the inhibition at 3.1 mg/kg amounted to 69%.

Take `CCCN(CCC)C(=O)COCCN1CCN2c3ccccc3Cc3ccccc3C2C1` (stereo not drawn) [Example 31, α-[2-(1,2,3,4,10,14b-Hexahydrodibenzo[c,f]pyrazino[1,2-a]azepin-2-yl)ethoxy]-N,N-dipropylacetamide]: in experiment [4], the inhibition at 0.8 mg/kg came to 32% and the inhibition at 3.1 mg/kg came to 76%.

On to `O=C(O)CN1CCN2c3ccccc3Cn3cccc3C2C1` (stereo not drawn) [Prior art compound G, Sodium (1,3,4,14btetrahydro-2H,10H-pyrazino[1,2a]pyrrolo[2,1c][1,4]benzodiazepin-yl)acetate, reference compound], for which the inhibition at 3.1 mg/kg in experiment [4] is 28%.
